For this assay, the system named is HT29 intrarenal xenograft, nude mice, tumor weight change. The experiment in a line: NCI In Vivo Anticancer Drug Screen. Data for tumor model HT29;CX-1 Human Adenocarcinoma (MER+) (intrarenal inoculation) in NU/NU BALB/C (nude) mice. The note with it: endpoint: mean tumor weight change, higher = larger tumour. Here is the method:
The antitumor activity of compounds was measured in mice bearing transplantable tumors. Survival or tumor size were measured and the results are expressed as the measurement made in the treated group (T) divided by the measurement made in the vehicle treated control group (C). The tumor model used in this assay is HT29;CX-1 Human Adenocarcinoma (MER+) (intrarenal inoculation) in NU/NU BALB/C (nude) mice

[1] abbreviates: dose: 150.0 mg/kg/injection, schedule: Q04DX004 (sc), vehicle: saline with Tween-80.
The mark [2] stands for this setting: dose: 300.0 mg/kg/injection, schedule: Q04DX004 (sc), vehicle: saline with Tween-80.
[3] abbreviates: dose: 600.0 mg/kg/injection, schedule: Q04DX004 (sc), vehicle: saline with Tween-80.
[4] abbreviates: dose: 1200.0 mg/kg/injection, schedule: Q04DX004 (sc), vehicle: saline with Tween-80.
Setting [5] is: dose: 150.0 mg/kg/injection, schedule: Q04DX004 (sc), vehicle: saline.
[6] abbreviates: dose: 300.0 mg/kg/injection, schedule: Q04DX004 (sc), vehicle: saline.
The mark [7] stands for this setting: dose: 10.0 mg/kg/injection, schedule: Q04DX004 (sc), vehicle: saline.
Where [8] appears, read: dose: 20.0 mg/kg/injection, schedule: Q04DX004 (sc), vehicle: saline.
Setting [9] is: dose: 300.0 mg/kg/injection, schedule: Q04DX004 (sc), vehicle: Klucel (hydroxypropylcellulose) (HPC).
[10] abbreviates: dose: 600.0 mg/kg/injection, schedule: Q04DX004 (sc), vehicle: Klucel (hydroxypropylcellulose) (HPC).
Where [11] appears, read: dose: 1200.0 mg/kg/injection, schedule: Q04DX004 (sc), vehicle: Klucel (hydroxypropylcellulose) (HPC).
Where [12] appears, read: dose: 150.0 mg/kg/injection, schedule: Q04DX004 (sc), vehicle: Klucel (hydroxypropylcellulose) (HPC).

Results filed as inconclusive are left out.

This is an account of results in PubChem BioAssay AID208 (DTP/NCI, 2004).

As for `C[C@@H]1CC[C@]2(C)CC[C@]3(C)C(=CC[C@@H]4[C@@]5(C)CC[C@@H](OC(=O)c6ccc(O)cc6)C(C)(C)[C@@H]5C[C@H](O)[C@]43C)[C@@H]2[C@H]1C(=O)O`, the T/C was 79 % of control (dose: 0.62 mg/kg/injection, schedule: Q04DX004 (sc), vehicle: saline with Tween-80); 109 % of control (dose: 1.25 mg/kg/injection, schedule: Q04DX004 (sc), vehicle: saline with Tween-80); 59 % of control (dose: 2.5 mg/kg/injection, schedule: Q04DX004 (sc), vehicle: saline with Tween-80).

As for `O=C(CCCCCCC(=O)ON1C(=O)CCC1=O)ON1C(=O)CCC1=O`, the T/C under setting [1] was 25 % of control, the T/C under setting [2] was 50 % of control, the T/C under setting [3] was 93 % of control and the T/C under setting [4] is 77 % of control.

Regarding `Nc1nc(=O)n(C2OC(CO)C(O)C2O)cc1F` (stereo unspecified), the T/C is, setting by setting: (dose: 300.0 mg/kg/injection, schedule: Q04DX004 (ip), vehicle: saline) 66 % of control; (dose: 600.0 mg/kg/injection, schedule: Q04DX004 (ip), vehicle: saline) 64 % of control; (dose: 900.0 mg/kg/injection, schedule: Q04DX004 (ip), vehicle: saline) 53 % of control; (dose: 1200.0 mg/kg/injection, schedule: Q04DX004 (ip), vehicle: saline) 88 % of control.

As for `OCC1OC(n2cnc3c(=S)nc[nH]c32)C(O)C1O` (stereo unspecified), the T/C under setting [5] was 91 % of control; the T/C under setting [6] was 173 % of control; the T/C (dose: 600.0 mg/kg/injection, schedule: Q04DX004 (sc), vehicle: saline) is 103 % of control.

For the compound `O=NN(CCCl)C(=O)NC1OC(CO)C(O)C(O)C1O` (stereo unspecified), the T/C was 75 % of control (dose: 5.0 mg/kg/injection, schedule: Q04DX004 (sc), vehicle: saline); 76 % of control under setting [7]; 57 % of control under setting [8].

`COC(=O)Nc1nc2ccc(SC)cc2c(=O)[nH]1`: the T/C is 122 % of control under setting [9]; 95 % of control under setting [10]; 48 % of control under setting [11]; 37 % of control (dose: 2400.0 mg/kg/injection, schedule: Q04DX004 (sc), vehicle: Klucel (hydroxypropylcellulose) (HPC)).

As for `COc1nc(=O)n(C2C=CC(=O)O2)cc1F` (stereo unspecified), the T/C is 52 % of control (dose: 75.0 mg/kg/injection, schedule: Q04DX004 (sc), vehicle: suspension in saline) and 122 % of control (dose: 150.0 mg/kg/injection, schedule: Q04DX004 (sc), vehicle: suspension in saline).

Consider `C[n+]1ccc2cc(N)c3c4ccccc4sc3c2c1`, for which the T/C was 60 % of control (dose: 12.5 mg/kg/injection, schedule: Q04DX004 (sc), vehicle: saline with Tween-80) and 43 % of control (dose: 25.0 mg/kg/injection, schedule: Q04DX004 (sc), vehicle: saline with Tween-80).

Take `Oc1ccc(CCl)c2cccnc12`: the T/C (dose: 75.0 mg/kg/injection, schedule: Q04DX004 (sc), vehicle: saline) is 76 % of control; the T/C under setting [5] was 110 % of control; the T/C under setting [6] was 89 % of control.

For `Oc1cccc2ccccc12`, the T/C (dose: 150.0 mg/kg/injection, schedule: Q04DX004 (ip), vehicle: water) is 63 % of control.

With `C[C@H]1C[C@@H]2[C@H]([C@@H](O)C[C@@]3(C)[C@H]2CC[C@]3(O)C(=O)CO)[C@@]2(C)C=CC(=O)C=C12`, the T/C runs as follows: (dose: 200.0 mg/kg/injection, schedule: Q04DX004 (sc), vehicle: Klucel (hydroxypropylcellulose) (HPC)) 14 % of control; (dose: 400.0 mg/kg/injection, schedule: Q04DX004 (sc), vehicle: Klucel (hydroxypropylcellulose) (HPC)) 19 % of control; (dose: 800.0 mg/kg/injection, schedule: Q04DX004 (sc), vehicle: Klucel (hydroxypropylcellulose) (HPC)) 29 % of control.

For `COc1cc(C2c3cc4c(cc3C(O)C(CO)C2CO)OCO4)cc(OC)c1OC` (stereo unspecified), the T/C (dose: 200.0 mg/kg/injection, schedule: Q04DX004 (sc), vehicle: saline with Tween-80) is 72 % of control; the T/C (dose: 400.0 mg/kg/injection, schedule: Q04DX004 (sc), vehicle: saline with Tween-80) is 49 % of control; the T/C (dose: 800.0 mg/kg/injection, schedule: Q04DX004 (sc), vehicle: saline with Tween-80) is 96 % of control; the T/C (dose: 1600.0 mg/kg/injection, schedule: Q04DX004 (sc), vehicle: saline with Tween-80) was 30 % of control.

Regarding `CCNC(C)(C)C(SSS)c1ccco1` (stereo unspecified), the T/C is 121 % of control (dose: 75.0 mg/kg/injection, schedule: Q04DX004 (sc), vehicle: saline with Tween-80); 119 % of control under setting [1]; 91 % of control under setting [2].

`CCCCC1CCCCCCc2[nH]c(/C=C3\N=C(c4ccc[nH]4)C=C3OC)cc21` (stereo unspecified): the T/C was 100 % of control (dose: 2.0 mg/kg/injection, schedule: Q04DX004 (sc), vehicle: saline with Tween-80); 192 % of control (dose: 4.0 mg/kg/injection, schedule: Q04DX004 (sc), vehicle: saline with Tween-80); 92 % of control (dose: 8.0 mg/kg/injection, schedule: Q04DX004 (sc), vehicle: saline with Tween-80).

`O=Cc1ccc(C=O)c(Cl)c1`: the T/C was 92 % of control under setting [12], 81 % of control under setting [9], 109 % of control under setting [10] and 114 % of control under setting [11].

Consider `O=C(Nc1cccc2c(OC(=O)C(Cl)Cl)c(N=Nc3ccc(S(=O)(=O)Nc4nccs4)cc3)cc(N=Nc3ccc(S(=O)(=O)Nc4nccs4)cc3)c12)C(Cl)Cl` (tested in a mixture with another compound), for which the T/C under setting [2] was 58 % of control; the T/C under setting [3] was 89 % of control; the T/C under setting [4] is 78 % of control; the T/C (dose: 2400.0 mg/kg/injection, schedule: Q04DX004 (sc), vehicle: saline with Tween-80) is 159 % of control.

Regarding `CCn1cnc2c(=S)nc[nH]c21`, the T/C under setting [5] was 175 % of control.

In the case of `Nc1ccc(Cn2ccc3c4c(N)nc(N)nc4ccc32)cc1`, the T/C by setting is: (dose: 18.75 mg/kg/injection, schedule: Q04DX004 (sc), vehicle: saline with Tween-80) 60 % of control; (dose: 37.5 mg/kg/injection, schedule: Q04DX004 (sc), vehicle: saline with Tween-80) 58 % of control.

Turning to `Nc1ccn([C@@H](C=O)O[C@@H](C=O)CO)c(=O)n1`, the T/C is 117 % of control (dose: 50.0 mg/kg/injection, schedule: Q04DX004 (sc), vehicle: saline); 71 % of control (dose: 100.0 mg/kg/injection, schedule: Q04DX004 (sc), vehicle: saline); 113 % of control (dose: 200.0 mg/kg/injection, schedule: Q04DX004 (sc), vehicle: saline).

With `COc1ccc2c(ccc3oc([N+](=O)[O-])cc32)c1`, the T/C runs as follows: under setting [12], 113 % of control; under setting [10], 76 % of control.

In the case of `CC(C)CC(NC(=O)CF)C(=O)O` (stereo unspecified), the T/C reads like this: under setting [7], 87 % of control; under setting [8], 157 % of control.

For `ClCCCN1CCCCC1CCl` (stereo unspecified), the T/C (dose: 6.25 mg/kg/injection, schedule: Q04DX004 (sc), vehicle: saline) was 57 % of control; the T/C (dose: 12.5 mg/kg/injection, schedule: Q04DX004 (sc), vehicle: saline) is 95 % of control; the T/C (dose: 25.0 mg/kg/injection, schedule: Q04DX004 (sc), vehicle: saline) was 71 % of control.

For the compound `CC(O)CCC(=O)c1ccoc1` (stereo unspecified), the T/C reads like this: (dose: 3.75 mg/kg/injection, schedule: Q01DX010 (ip), vehicle: saline) 97 % of control; (dose: 7.5 mg/kg/injection, schedule: Q01DX010 (ip), vehicle: saline) 88 % of control; (dose: 15.0 mg/kg/injection, schedule: Q01DX010 (ip), vehicle: saline) 108 % of control; (dose: 30.0 mg/kg/injection, schedule: Q01DX010 (ip), vehicle: saline) 89 % of control.

Turning to `COC1(OC)C2C=CC1CC2`, the T/C by setting is: under setting [1], 114 % of control; under setting [2], 72 % of control; under setting [3], 123 % of control; under setting [4], 197 % of control.
